Measured values from article PMC7518156 (PeerJ, 2020).
Like-named read-outs stand apart in the source and are kept apart here.

Test: Pharmacokinetics of ERL and GEF in Wistar rats after four weeks consumption of water or flavoured water (plasma, UPLC-MS/MS, non-compartmental analysis)
Assay type: in vivo
Conditions: for AUC(0-t): read-out: AUC0-48; for half-life: read-out: t½ (converted)
Protocol: Fifty healthy male Wistar rats weighing 250 ± 30 g were obtained from the animal house, College of Pharmacy, King Saud University, Riyadh, Saudi Arabia. Rats were randomly divided into ten cages (n = 5). All individualized ventilated cages (IVC) type IV used in this study were of 20″L × 11″W × 9″ in dimension capable of hosting 4–5 rats. Cages density, bedding, and sanitation frequency was similar in all cages. Cages were housed at room temperature (25 °C) and at an average relative humidity of 50%. Daily observation of all rats was required to ensure that all animals maintained good health. All animal experiments strictly followed the guidelines of the Ethical Committee for Performing Studies on Animals, King Saud University, Riyadh, Saudi Arabia, protocol number KSU-SE-19-13.
Four types of FW, (Aquafina®, a product of Pepsi-Cola®, Saudi Industrial Projects Company, Jeddah, Saudi Arabia) with different flavours, specifically berry (group II), peach (group III), lime (group IV), and pineapple FW (group V) were used. Other components found in FW used in this study include water, preservatives (sodium phosphate, potassium sorbet, sodium benzoate), acidifiers (citric acid, maleic acid), sweeteners (aspartame, potassium acesulfame, allose), acidity regulator (sodium citrate), and antioxidant agent (calcium disodium EDTA). […] The parallel design was used in this study to avoid animals’ physiological changes that could occur in the cross-over design, possibly affecting PK profiles of drug substances. All animals involved in the study were deprived from food, but not water/FW, for at least 12 h before drug administration. […] Drugs were administered to the rats between 7:00 am and 8:00 am. Rats were separately weighed from day one of water/FW consumption prior to drug administration for accurate dose calculation (Fig. S1). Blood samples (0.3 mL) were collected from each rat immediately prior to dosing (0 time) and at predetermined time points (0.5, 1, 2, 3, 5, 24, and 48 h) post drug administration. Blood samples were withdrawn and processed as described previously ([Maher et al., 2017]; [Maher, Alzoman & Shehata, 2016]; [Maher, Alzoman & Shehata, 2018]). Specifically, blood samples were withdrawn from the retro-orbital sinus into a series of heparinized tubes. Plasma was separated from collected blood samples by centrifugation at 4,500 rpm for 30 min where the centrifuge was maintained at 4 °C, and then stored at −20 °C until the day of analysis. […] A mixture of acetonitrile: water (80: 20, v/v), with 0.1% formic acid was used as a mobile phase at a flow rate of 0.2 mL/min ([Maher, Alzoman & Shehata, 2016]).
Cmax and tmax were obtained from the corresponding plasma concentration–time curve (Figs. 1A and 1B). […] The area under the plasma concentration–time curve from time 0 to the last sampling time t, 48 h (AUC0–t) was calculated using the trapezoidal rule. […] AUC0–∞ was also derived by summing up AUC0–t andthe area obtained by extrapolation from time t to ∞. The latter area was calculated from the division of the last measured concentration (Clast) by λz.
Results were presented as mean ± SD. PK parameters of all treated groups following the consumption of FW were compared with control (rats having free access to water), using one-way ANOVA and Bonferroni’s multiple comparisons test. Statistical significance was obtained with p-values ≤ 0.05.

[1] = male, Wistar, rat, plasma, oral, 20 mg/kg, PKSolver sheet, dose 20 mg/kg, +Berry, read-out: Conc
[2] = male, Wistar, rat, plasma, oral, 20 mg/kg, PKSolver sheet, dose 20 mg/kg, +Lime, read-out: Conc
[3] = male, Wistar, rat, plasma, oral, 20 mg/kg, PKSolver sheet, dose 20 mg/kg, +Peach, read-out: Conc
[4] = male, Wistar, rat, plasma, oral, 20 mg/kg, PKSolver sheet, dose 20 mg/kg, +Pineapple, read-out: Conc
[5] = male, Wistar, rat, plasma, oral, 20 mg/kg, PKSolver sheet, dose 20 mg/kg, drug alone (water), read-out: Conc
[6] = male, Wistar, rat, plasma, po, 20 mg/kg, rats, 20 mg/kg oral, +Berry FW, average, read-out: Conc*10 (ng/mL plasma)
[7] = male, Wistar, rat, plasma, po, 20 mg/kg, rats, 20 mg/kg oral, +Lime FW, average, read-out: Conc*10 (ng/mL plasma)
[8] = male, Wistar, rat, plasma, po, 20 mg/kg, rats, 20 mg/kg oral, +Peach FW, average, read-out: Conc*10 (ng/mL plasma)
[9] = male, Wistar, rat, plasma, po, 20 mg/kg, rats, 20 mg/kg oral, +Pineapple FW, average, read-out: Conc*10 (ng/mL plasma)
[10] = male, Wistar, rat, plasma, po, 20 mg/kg, rats, 20 mg/kg oral, drug alone (water), average, read-out: Conc*10 (ng/mL plasma)
[11] = male, Wistar, rat, plasma, po, 20 mg/kg, rats, 20 mg/kg oral, four weeks berry FW, n = 5, mean (SD)
[12] = male, Wistar, rat, plasma, po, 20 mg/kg, rats, 20 mg/kg oral, four weeks peach FW, n = 5, mean (SD)
[13] = male, Wistar, rat, plasma, po, 20 mg/kg, rats, 20 mg/kg oral, four weeks pineapple FW, n = 5, mean (SD)
[14] = male, Wistar, rat, plasma, po, 20 mg/kg, rats, 20 mg/kg oral, water (control), n = 5, mean (SD)
[15] = male, Wistar, rat, plasma, po, 20 mg/kg, raw data sheet, from average profile, +Berry FW
[16] = male, Wistar, rat, plasma, po, 20 mg/kg, raw data sheet, from average profile, +Lime FW
[17] = male, Wistar, rat, plasma, po, 20 mg/kg, raw data sheet, from average profile, +Peach FW
[18] = male, Wistar, rat, plasma, po, 20 mg/kg, raw data sheet, from average profile, +Pineapple FW
[19] = male, Wistar, rat, plasma, po, 20 mg/kg, raw data sheet, from average profile, drug alone (water)
[20] = rats, lime FW relative to control (water)
[21] = rats, pineapple FW relative to control (water)

## COc1cc2ncnc(Nc3ccc(F)c(Cl)c3)c2cc1OCCCN1CCOCC1 [GEF, Gefitinib]
[1]
  concentration at 0 h: 39.1 ng/mL
  concentration at 0.5 h: 99.7 ng/mL
  concentration at 1 h: 152 ng/mL
  concentration at 2 h: 322 ng/mL
  concentration at 3 h: 191 ng/mL
  concentration at 5 h: 150 ng/mL
  concentration at 24 h: 81.4 ng/mL
  concentration at 48 h: 30.2 ng/mL
[2]
  concentration at 0 h: 157 ng/mL
  concentration at 0.5 h: 387 ng/mL
  concentration at 1 h: 483 ng/mL
  concentration at 2 h: 574 ng/mL
  concentration at 3 h: 643 ng/mL
  concentration at 5 h: 490 ng/mL
  concentration at 24 h: 216 ng/mL
  concentration at 48 h: 95.2 ng/mL
[3]
  concentration at 0 h: 44.5 ng/mL
  concentration at 0.5 h: 135 ng/mL
  concentration at 1 h: 202 ng/mL
  concentration at 2 h: 365 ng/mL
  concentration at 3 h: 213 ng/mL
  concentration at 5 h: 161 ng/mL
  concentration at 24 h: 85.3 ng/mL
  concentration at 48 h: 25.2 ng/mL
male, Wistar, rat, plasma, oral, 20 mg/kg, PKSolver sheet, dose 20 mg/kg, +Pineapple
  Cmax: 445 ng/mL
male, Wistar, rat, plasma, oral, 20 mg/kg, PKSolver sheet, dose 20 mg/kg, +Pineapple, read-out: Tmax
  Tmax: 2 h
[4]
  concentration at 0 h: 75.5 ng/mL
  concentration at 0.5 h: 227 ng/mL
  concentration at 1 h: 302 ng/mL
  concentration at 2 h: 445 ng/mL
  concentration at 3 h: 259 ng/mL
  concentration at 5 h: 210 ng/mL
  concentration at 24 h: 152 ng/mL
  concentration at 48 h: 40.2 ng/mL
[5]
  concentration at 0 h: 34.5 ng/mL
  concentration at 0.5 h: 142 ng/mL
  concentration at 1 h: 220 ng/mL
  concentration at 2 h: 402 ng/mL
  concentration at 3 h: 169 ng/mL
  concentration at 5 h: 148 ng/mL
  concentration at 24 h: 69.8 ng/mL
  concentration at 48 h: 29.2 ng/mL
[6]
  concentration at 0 h: 39.1 ng/mL
  concentration at 0.5 h: 99.7 ng/mL
  concentration at 1 h: 152 ng/mL
  concentration at 2 h: 322 ng/mL
  concentration at 3 h: 191 ng/mL
  concentration at 5 h: 150 ng/mL
  concentration at 24 h: 81.4 ng/mL
  concentration at 48 h: 30.2 ng/mL
[7]
  concentration at 0 h: 157 ng/mL
  concentration at 0.5 h: 387 ng/mL
  concentration at 1 h: 483 ng/mL
  concentration at 2 h: 574 ng/mL
  concentration at 3 h: 643 ng/mL
  concentration at 5 h: 490 ng/mL
  concentration at 24 h: 216 ng/mL
  concentration at 48 h: 95.2 ng/mL
[8]
  concentration at 0 h: 44.5 ng/mL
  concentration at 0.5 h: 135 ng/mL
  concentration at 1 h: 202 ng/mL
  concentration at 2 h: 365 ng/mL
  concentration at 3 h: 213 ng/mL
  concentration at 5 h: 161 ng/mL
  concentration at 24 h: 85.3 ng/mL
  concentration at 48 h: 25.2 ng/mL
[9]
  concentration at 0.5 h: 227 ng/mL
  concentration at 1 h: 302 ng/mL
  concentration at 2 h: 445 ng/mL
  concentration at 3 h: 259 ng/mL
  concentration at 5 h: 210 ng/mL
  concentration at 24 h: 152 ng/mL
  concentration at 48 h: 40.2 ng/mL
[10]
  concentration at 0 h: 34.5 ng/mL
  concentration at 0.5 h: 142 ng/mL
  concentration at 1 h: 220 ng/mL
  concentration at 2 h: 402 ng/mL
  concentration at 3 h: 169 ng/mL
  concentration at 5 h: 148 ng/mL
  concentration at 24 h: 69.8 ng/mL
  concentration at 48 h: 29.2 ng/mL
[11]
  AUC(0-inf): 5230 ng·h/mL
  CL/F: 74.7 mL/min/kg
  AUC(0-t): 4460 ng·h/mL
  half-life: 17.7 h
male, Wistar, rat, plasma, po, 20 mg/kg, rats, 20 mg/kg oral, four weeks berry FW, n = 5, mean (SD), read-out: tmax
  Tmax: 2.33 h
male, Wistar, rat, plasma, po, 20 mg/kg, rats, 20 mg/kg oral, four weeks lime FW, n = 5, mean (SD)
  half-life: 16.9 h
[12]
  AUC(0-inf): 5300 ng·h/mL
  CL/F: 70.3 mL/min/kg
  Cmax: 365 ng/mL
  AUC(0-t): 4740 ng·h/mL
  half-life: 15.4 h
male, Wistar, rat, plasma, po, 20 mg/kg, rats, 20 mg/kg oral, four weeks peach FW, n = 5, mean (SD), read-out: tmax
  Tmax: 2 h
[13]
  Cmax: 445 ng/mL
  half-life: 17.8 h
male, Wistar, rat, plasma, po, 20 mg/kg, rats, 20 mg/kg oral, four weeks pineapple FW, n = 5, mean (SD), read-out: tmax
  Tmax: 1.71 h
[14]
  AUC(0-inf): 5060 ng·h/mL
  CL/F: 77.3 mL/min/kg
  Cmax: 406 ng/mL
  AUC(0-t): 4310 ng·h/mL
  half-life: 17.9 h
male, Wistar, rat, plasma, po, 20 mg/kg, rats, 20 mg/kg oral, water (control), n = 5, mean (SD), read-out: tmax
  Tmax: 2 h
[15]
  AUC: 5230 ng·h/mL
  Cmax: 322 ng/mL
  half-life: 17.7 h
male, Wistar, rat, plasma, po, 20 mg/kg, raw data sheet, from average profile, +Berry FW, read-out: tmax
  Tmax: 2 h
[16]
  AUC: 15400 ng·h/mL
  Cmax: 643 ng/mL
  half-life: 16.9 h
[17]
  AUC: 5300 ng·h/mL
  Cmax: 365 ng/mL
  half-life: 15.4 h
male, Wistar, rat, plasma, po, 20 mg/kg, raw data sheet, from average profile, +Peach FW, read-out: tmax
  Tmax: 2 h
[18]
  AUC: 8170 ng·h/mL
  Cmax: 445 ng/mL
  half-life: 17.8 h
male, Wistar, rat, plasma, po, 20 mg/kg, raw data sheet, from average profile, +Pineapple FW, read-out: tmax
  Tmax: 2 h
[19]
  AUC: 5060 ng·h/mL
  Cmax: 402 ng/mL
  half-life: 17.9 h
male, Wistar, rat, plasma, po, 20 mg/kg, raw data sheet, from average profile, drug alone (water), read-out: tmax
  Tmax: 2 h
rats, all tested FW relative to control (water)
  change in t1/2: None of the tested FW caused a significant change
rats, berry FW relative to control (water)
  effect on exposure (AUC0–48): no effect was found
[20]
  decrease in apparent oral clearance (CL/F): 67%
  increase in AUC0–48: 203%
  increase in AUC0–∞: 203%
  increase in Cmax: 58%
  increase in tmax: ~50%
[21]
  decrease in apparent oral clearance (CL/F): ~40%
  increase in AUC0–48: ~65%
  increase in AUC0–∞: ~61%
Raw data sheet, from average profile, +Lime FW
  Tmax: 3 h
Raw data sheet, +Berry FW vs drug alone
  % change FOR C MAX: -19% FOR C MAX
Raw data sheet, +Lime FW vs drug alone
  % change FOR C MAX: 60% FOR C MAX
Raw data sheet, +Peach FW vs drug alone
  % change FOR C MAX: -9% FOR C MAX
Raw data sheet, +Pineapple FW vs drug alone
  % change FOR C MAX: 11% FOR C MAX
